Assay results as given in patent US20250206761A1, “HALOINDOLE MACROCYCLIC COMPOUNDS FOR THE TREATMENT OF CANCER” (Hoffmann-La Roche Inc., priority 2022, published 2025).
Like-named read-outs stand apart in the source and are kept apart here.

Conditions: ester bond, EDCI/HOBt/DIEA, DCM

SMILES	ring closure, yield of all isomers (from CO[C@@H](C)c1ncc(N2CCN(C(=O)OCc3ccccc3)CC2)cc1-c1c(CC(C)(C)CO)c2cc(-c3csc(C[C@H](NC(=O)OC(C)(C)C)C(=O)N4CCC[C@@H](C(=O)O)N4)n3)c(F)cc2n1CC(F)(F)F, 9.63 mM, 15.0 °C, 12.0 h)	ring closure, yield of all isomers (from CO[C@@H](C)c1ncc(N2CCOCC2)cc1-c1c(CC(C)(C)CO)c2cc(-c3csc(C[C@H](NC(=O)OC(C)(C)C)C(=O)N4CCC[C@@H](C(=O)O)N4)n3)c(F)cc2n1CC(F)(F)F, 12.0 mM, 20.0 °C, 15.0 h)
CO[C@@H](C)c1ncc(N2CCN(C(=O)OCc3ccccc3)CC2)cc1-c1c2c3cc(c(F)cc3n1CC(F)(F)F)-c1csc(n1)C[C@H](NC(=O)OC(C)(C)C)C(=O)N1CCC[C@H](N1)C(=O)OCC(C)(C)C2	73.4%	–
CO[C@@H](C)c1ncc(N2CCOCC2)cc1-c1c2c3cc(c(F)cc3n1CC(F)(F)F)-c1csc(n1)C[C@H](NC(=O)OC(C)(C)C)C(=O)N1CCC[C@H](N1)C(=O)OCC(C)(C)C2	–	81.3%
